Molecular target: T1, P2X purinoceptor 7 [Y155H,R270H] (Homo sapiens, UniProt Q99572, R270H/Y155H)
T1 construct: gene P2RX7
Assay: Evaluation of a Human P2X7 Receptor Inhibitory Activity
Method: Stably expressing cell line (1321N1 cell transfected with the human P2X7 receptor gene (GenBank accession number NM_002562.5 including T606C and G952A SNP)) was used. The cells were seeded in a 384-well microtiter plate at a concentration of 8000 cells/well and cultured in the medium (10% fetal bovine serum, 25 mM HEPES, 1% penicillin and streptomycin in DMEM) for one day at 37° C. under 5% carbon dioxide atmosphere. After replacing with 20 μL of the HBSS buffer (20 mM HEPES, 55.6 mM D-glucose, 1×HBSS(−), pH7.4-7.5), 15 μL of 17.3 μM Yo-Pro solution in the HBSS buffer was added. The plate was placed in high-throughput cellular screening system FLIPR TETRA (Molecullar Devices, LLC.) and 15 μL of 130 μM BzATP solution in the HBSS buffer was added. Measurement of fluorescence intensity by FLIPR TETRA was started. After eight minutes, 15 μL of DMSO solutions containing different concentrations of the compound of the present invention as prepared by dilution with the HBSS buffer were dispensed to each well through the built-in automatic dispenser, and the measurement of fluorescence intensity was continued for 20 minutes. […] Changing values of fluorescence intensity by the compound of the present invention were calculated by difference between maximum and minimum fluorescence intensity for 20 minutes. IC50 was calculated using logistic approximation.

T1 sequence (Q99572 whole entry Y155H/R270H, looked up): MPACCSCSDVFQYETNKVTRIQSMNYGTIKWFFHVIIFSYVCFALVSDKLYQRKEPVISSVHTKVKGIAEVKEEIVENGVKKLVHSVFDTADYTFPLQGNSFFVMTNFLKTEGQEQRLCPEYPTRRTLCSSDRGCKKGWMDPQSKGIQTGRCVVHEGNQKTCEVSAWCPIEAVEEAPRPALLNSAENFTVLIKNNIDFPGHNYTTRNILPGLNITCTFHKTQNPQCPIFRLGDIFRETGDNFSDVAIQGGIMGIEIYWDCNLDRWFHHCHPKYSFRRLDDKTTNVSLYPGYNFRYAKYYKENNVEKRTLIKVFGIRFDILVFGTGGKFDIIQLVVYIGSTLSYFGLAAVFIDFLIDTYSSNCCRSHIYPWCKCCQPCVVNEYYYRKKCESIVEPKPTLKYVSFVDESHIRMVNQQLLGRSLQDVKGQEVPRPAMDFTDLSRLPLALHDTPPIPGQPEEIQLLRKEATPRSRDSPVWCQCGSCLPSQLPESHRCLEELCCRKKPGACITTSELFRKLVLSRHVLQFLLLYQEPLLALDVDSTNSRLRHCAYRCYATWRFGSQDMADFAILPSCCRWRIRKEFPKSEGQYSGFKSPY

## COc1cn(Cc2cc(F)c(F)c(F)c2)c(Nc2cccc(Cl)c2C)nc1=O [US10774051, Compound I-0004]
  IC50: < 0.01 µM
